# Measurements taken from PubChem BioAssay (NCI).
#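 Method: 48-hour compound exposure of cells in 96-well plates, five concentrations, linear interpolation of endpoints. Here, GI50 denotes the concentration required for 50% inhibition of growth. TGI marks complete inhibition of growth.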
# Key:
# Test in all cases: NCI tumour cell line growth inhibition, 48 h
# SK-MEL-5 melanoma = tested on: SK-MEL-5 melanoma
# T-47D breast = tested on: T-47D breast
# HCT-15 colon = tested on: HCT-15 colon
# MCF7 breast = tested on: MCF7 breast
# OVCAR-3 ovarian = tested on: OVCAR-3 ovarian
# BT-549 breast = tested on: BT-549 breast
# DU-145 prostate = tested on: DU-145 prostate
# LOX IMVI melanoma = tested on: LOX IMVI melanoma
# NCI/ADR-RES ovarian = tested on: NCI/ADR-RES ovarian
# SF-295 CNS = tested on: SF-295 CNS
# ACHN renal = tested on: ACHN renal
# PC-3 prostate = tested on: PC-3 prostate
# HCT-116 colon = tested on: HCT-116 colon
# UACC-62 melanoma = tested on: UACC-62 melanoma
# OVCAR-8 ovarian = tested on: OVCAR-8 ovarian
# HL-60(TB) leukemia = tested on: HL-60(TB) leukemia
# MDA-MB-231 breast = tested on: MDA-MB-231 breast
# HOP-92 NSCLC = tested on: HOP-92 NSCLC
# 786-0 renal = tested on: 786-0 renal
# CAKI-1 renal = tested on: CAKI-1 renal
# RPMI-8226 leukemia = tested on: RPMI-8226 leukemia
# HCC-2998 colon = tested on: HCC-2998 colon
# SK-MEL-2 melanoma = tested on: SK-MEL-2 melanoma
# SK-MEL-28 melanoma = tested on: SK-MEL-28 melanoma
# TK-10 renal = tested on: TK-10 renal
# SF-268 CNS = tested on: SF-268 CNS
# HOP-62 NSCLC = tested on: HOP-62 NSCLC
# UACC-257 melanoma = tested on: UACC-257 melanoma
# HS 578T breast = tested on: HS 578T breast
# SR leukemia = tested on: SR leukemia
# A498 renal = tested on: A498 renal
# SNB-19 CNS = tested on: SNB-19 CNS
# KM12 colon = tested on: KM12 colon
# COLO 205 colon = tested on: COLO 205 colon
# EKVX NSCLC = tested on: EKVX NSCLC
# SNB-75 CNS = tested on: SNB-75 CNS
# HT29 colon = tested on: HT29 colon
# M14 melanoma = tested on: M14 melanoma
# MDA-N = tested on: MDA-N
# NCI-H23 lung = tested on: NCI-H23 lung
# MOLT-4 leukemia = tested on: MOLT-4 leukemia
# UO-31 renal = tested on: UO-31 renal
# U251 CNS = tested on: U251 CNS
# NCI-H460 lung = tested on: NCI-H460 lung
# SF-539 CNS = tested on: SF-539 CNS
# IGROV1 ovarian = tested on: IGROV1 ovarian
# SW-620 colon = tested on: SW-620 colon
# A549 NSCLC = tested on: A549 NSCLC
# MDA-MB-435 = tested on: MDA-MB-435
# NCI-H522 lung = tested on: NCI-H522 lung
# OVCAR-5 ovarian = tested on: OVCAR-5 ovarian
# OVCAR-4 ovarian = tested on: OVCAR-4 ovarian
# CCRF-CEM leukemia = tested on: CCRF-CEM leukemia
# SN12C renal = tested on: SN12C renal
# MALME-3M melanoma = tested on: MALME-3M melanoma
# K-562 leukemia = tested on: K-562 leukemia
# SK-OV-3 ovarian = tested on: SK-OV-3 ovarian
# RXF 393 renal = tested on: RXF 393 renal
# NCI-H226 lung = tested on: NCI-H226 lung
smiles,measurement,setting,value
CC(=O)NC1CCCN(O)C(=O)/C=C(/C)CCOC(=O)C(NC(C)=O)CCCN(O)C(=O)/C=C(/C)CCOC(=O)C(NC(C)=O)CCCN(O)C(=O)/C=C(/C)CCOC1=O.[Fe] (centres undefined),GI50,SK-MEL-5 melanoma,> 100 µM
same,TGI,SK-MEL-5 melanoma,> 100 µM
same,GI50,T-47D breast,> 100 µM
same,TGI,T-47D breast,> 100 µM
same,GI50,HCT-15 colon,> 100 µM
same,TGI,HCT-15 colon,> 100 µM
same,GI50,MCF7 breast,> 100 µM
same,TGI,MCF7 breast,> 100 µM
same,GI50,OVCAR-3 ovarian,> 100 µM
same,TGI,OVCAR-3 ovarian,> 100 µM
same,GI50,BT-549 breast,> 100 µM
same,TGI,BT-549 breast,> 100 µM
same,GI50,DU-145 prostate,> 100 µM
same,TGI,DU-145 prostate,> 100 µM
same,GI50,LOX IMVI melanoma,> 100 µM
same,TGI,LOX IMVI melanoma,> 100 µM
same,GI50,NCI/ADR-RES ovarian,> 100 µM
same,TGI,NCI/ADR-RES ovarian,> 100 µM
same,GI50,SF-295 CNS,> 100 µM
same,TGI,SF-295 CNS,> 100 µM
same,GI50,ACHN renal,> 100 µM
same,TGI,ACHN renal,> 100 µM
same,GI50,PC-3 prostate,> 100 µM
same,TGI,PC-3 prostate,> 100 µM
same,GI50,HCT-116 colon,> 100 µM
same,TGI,HCT-116 colon,> 100 µM
same,GI50,UACC-62 melanoma,> 100 µM
same,TGI,UACC-62 melanoma,> 100 µM
same,GI50,OVCAR-8 ovarian,> 100 µM
same,TGI,OVCAR-8 ovarian,> 100 µM
same,GI50,HL-60(TB) leukemia,> 100 µM
same,TGI,HL-60(TB) leukemia,> 100 µM
same,GI50,MDA-MB-231 breast,> 100 µM
same,TGI,MDA-MB-231 breast,> 100 µM
same,GI50,HOP-92 NSCLC,> 100 µM
same,TGI,HOP-92 NSCLC,> 100 µM
same,GI50,786-0 renal,> 100 µM
same,TGI,786-0 renal,> 100 µM
same,GI50,CAKI-1 renal,> 100 µM
same,TGI,CAKI-1 renal,> 100 µM
same,GI50,RPMI-8226 leukemia,> 100 µM
same,TGI,RPMI-8226 leukemia,> 100 µM
same,GI50,HCC-2998 colon,> 100 µM
same,TGI,HCC-2998 colon,> 100 µM
same,GI50,SK-MEL-2 melanoma,> 100 µM
same,TGI,SK-MEL-2 melanoma,> 100 µM
same,GI50,SK-MEL-28 melanoma,> 100 µM
same,TGI,SK-MEL-28 melanoma,> 100 µM
same,GI50,TK-10 renal,> 100 µM
same,TGI,TK-10 renal,> 100 µM
same,GI50,SF-268 CNS,> 100 µM
same,TGI,SF-268 CNS,> 100 µM
same,GI50,HOP-62 NSCLC,> 100 µM
same,TGI,HOP-62 NSCLC,> 100 µM
same,GI50,UACC-257 melanoma,> 100 µM
same,TGI,UACC-257 melanoma,> 100 µM
same,GI50,HS 578T breast,> 100 µM
same,TGI,HS 578T breast,> 100 µM
same,GI50,SR leukemia,> 100 µM
same,TGI,SR leukemia,> 100 µM
same,GI50,A498 renal,> 100 µM
same,TGI,A498 renal,> 100 µM
same,GI50,SNB-19 CNS,> 100 µM
same,TGI,SNB-19 CNS,> 100 µM
same,GI50,KM12 colon,> 100 µM
same,TGI,KM12 colon,> 100 µM
same,GI50,COLO 205 colon,> 100 µM
same,TGI,COLO 205 colon,> 100 µM
same,GI50,EKVX NSCLC,> 100 µM
same,TGI,EKVX NSCLC,> 100 µM
same,GI50,SNB-75 CNS,> 100 µM
same,TGI,SNB-75 CNS,> 100 µM
same,GI50,HT29 colon,> 100 µM
same,TGI,HT29 colon,> 100 µM
same,GI50,M14 melanoma,> 100 µM
same,TGI,M14 melanoma,> 100 µM
same,GI50,MDA-N,> 100 µM
same,TGI,MDA-N,> 100 µM
same,GI50,NCI-H23 lung,> 100 µM
same,TGI,NCI-H23 lung,> 100 µM
same,GI50,MOLT-4 leukemia,> 100 µM
same,TGI,MOLT-4 leukemia,> 100 µM
same,GI50,UO-31 renal,> 100 µM
same,TGI,UO-31 renal,> 100 µM
same,GI50,U251 CNS,> 100 µM
same,TGI,U251 CNS,> 100 µM
same,GI50,NCI-H460 lung,> 100 µM
same,TGI,NCI-H460 lung,> 100 µM
same,GI50,SF-539 CNS,> 100 µM
same,TGI,SF-539 CNS,> 100 µM
same,GI50,IGROV1 ovarian,> 100 µM
same,TGI,IGROV1 ovarian,> 100 µM
same,GI50,SW-620 colon,> 100 µM
same,TGI,SW-620 colon,> 100 µM
same,GI50,A549 NSCLC,> 100 µM
same,TGI,A549 NSCLC,> 100 µM
same,GI50,MDA-MB-435,> 100 µM
same,TGI,MDA-MB-435,> 100 µM
same,GI50,NCI-H522 lung,> 100 µM
same,TGI,NCI-H522 lung,> 100 µM
same,GI50,OVCAR-5 ovarian,> 100 µM
same,TGI,OVCAR-5 ovarian,> 100 µM
same,GI50,OVCAR-4 ovarian,> 100 µM
same,TGI,OVCAR-4 ovarian,> 100 µM
same,GI50,CCRF-CEM leukemia,> 100 µM
same,TGI,CCRF-CEM leukemia,> 100 µM
same,GI50,SN12C renal,> 100 µM
same,TGI,SN12C renal,> 100 µM
Cc1ccc(N(C)S(=O)(=O)c2ccccc2)cc1,TGI,SK-MEL-5 melanoma,> 100 µM
same,TGI,MALME-3M melanoma,> 100 µM
same,TGI,T-47D breast,> 100 µM
same,TGI,HCT-15 colon,> 100 µM
same,TGI,MCF7 breast,> 100 µM
same,TGI,OVCAR-3 ovarian,> 100 µM
same,TGI,BT-549 breast,> 100 µM
same,TGI,DU-145 prostate,> 100 µM
same,TGI,LOX IMVI melanoma,> 100 µM
same,TGI,NCI/ADR-RES ovarian,> 100 µM
same,TGI,SF-295 CNS,> 100 µM
same,TGI,K-562 leukemia,> 100 µM
same,TGI,ACHN renal,> 100 µM
same,TGI,SK-OV-3 ovarian,> 100 µM
same,TGI,PC-3 prostate,> 100 µM
same,TGI,HCT-116 colon,> 100 µM
same,TGI,UACC-62 melanoma,> 100 µM
same,TGI,OVCAR-8 ovarian,> 100 µM
same,TGI,MDA-MB-231 breast,> 100 µM
same,TGI,786-0 renal,> 100 µM
same,TGI,CAKI-1 renal,> 100 µM
same,TGI,RPMI-8226 leukemia,> 100 µM
same,TGI,HCC-2998 colon,> 100 µM
same,TGI,SK-MEL-2 melanoma,> 100 µM
same,TGI,SK-MEL-28 melanoma,> 100 µM
same,TGI,TK-10 renal,> 100 µM
same,TGI,SF-268 CNS,> 100 µM
same,TGI,HOP-62 NSCLC,> 100 µM
same,TGI,UACC-257 melanoma,> 100 µM
same,TGI,RXF 393 renal,> 100 µM
same,TGI,NCI-H226 lung,> 100 µM
same,TGI,HS 578T breast,> 100 µM
same,TGI,SR leukemia,> 100 µM
same,TGI,SNB-19 CNS,> 100 µM
same,TGI,KM12 colon,> 100 µM
same,TGI,COLO 205 colon,> 100 µM
same,TGI,EKVX NSCLC,> 100 µM
same,TGI,SNB-75 CNS,> 100 µM
same,TGI,HT29 colon,> 100 µM
same,TGI,M14 melanoma,> 100 µM
same,TGI,MDA-N,> 100 µM
same,TGI,NCI-H23 lung,> 100 µM
same,TGI,MOLT-4 leukemia,> 100 µM
same,TGI,UO-31 renal,> 100 µM
same,TGI,U251 CNS,> 100 µM
same,TGI,NCI-H460 lung,> 100 µM
same,TGI,SF-539 CNS,> 100 µM
same,TGI,IGROV1 ovarian,> 100 µM
same,TGI,SW-620 colon,> 100 µM
same,TGI,A549 NSCLC,> 100 µM
same,TGI,MDA-MB-435,> 100 µM
same,TGI,NCI-H522 lung,> 100 µM
same,TGI,OVCAR-5 ovarian,> 100 µM
same,TGI,OVCAR-4 ovarian,> 100 µM
same,TGI,CCRF-CEM leukemia,> 100 µM
same,TGI,SN12C renal,> 100 µM
